# Experiments:
# Colon 26 = test: Antiproliferative Activity against colon 26 cancer cells; assay type: functional, cell-based; settings: Mus musculus
# A 172 = test: Growth inhibition time for A172 Human Glioma cell growth at concentration 5 uM; assay type: functional
Compound,IC50 (Colon 26) [µg/mL],Inhibition period (A 172) [h]
CCCCCC/C=C/[C@@H]1C=CC(=O)/C1=C/CCCCCC(=O)O,0.23,–
CCCCC[C@H](O)/C=C/[C@@H]1C=CC(=O)/C1=C/CCCCCC(=O)OC,–,>72
CCCCC[C@H](O)/C=C/[C@H]1C=CC(=O)/C1=C/CCCCCC(=O)OC,–,<48
CCCCC[C@@H](O)/C=C/[C@@H]1C=CC(=O)/C1=C/CCCCCC(=O)OC,–,>72
CCCCC[C@@H](O)/C=C/[C@@H]1C=CC(=O)/C1=C/CCCCCC(=O)O,0.5,–
CCCCC[C@H](O)/C=C/[C@H]1C=CC(=O)/C1=C/CCCCCC(=O)O,0.57,–
CCCCC[C@H](O)/C=C/[C@@H]1C=CC(=O)/C1=C/CCCCCC(=O)O,0.35,–

# From ChEMBL document CHEMBL1131056, “Rational design of antitumor prostaglandins with high biological stability” (J Med Chem, 1998)
